From US6413542B1, “Direct pour-on antiparasitic skin solution and methods for treating, preventing and controlling myasis” (Merial, priority 1996, dated 2002)

Tests used:
Boophilus microplus [1] = assay: Example 2: efficacy of pour-on skin solutions against Boophilus microplus on artificially infested cattle (tick counts); type: in vivo; conditions: skin solution containing 1% compound A, 1 ml per 10 kg along the line of the back
Protocol: Study of the efficacy of skin solutions according to the invention containing, respectively, 0.25, 0.50 and 1% compound A to combat Boophilus microplus.
The study was performed on 16 young male castrated Herefords (weight ranging between 114 and 172 kg).
Three skin solutions according to Example 1 were prepared:
A placebo was prepared, which differed from the skin solutions according to the invention in that it contained no compound A.
In the studies, 1 ml of skin solution or of placebo were used per 10 kg of animal weight.
The dose volume was applied along the line of the animal's back, from the head to the base of the tail.
Between days-24 and -1, the animals were artificially infested on 11 occasions with 2,500 Boophilus microplus larvae. The aim of 24-day infestation is to ensure that all of the stages of Boophilus microplus are present on the animal (eggs, larvae, adults).
On day 0, the animals receive one of the skin solutions or the placebo.
Before the skin solutions or the placebo are applied, the number of ticks present on the various animals in the different groups are counted.
The blood-engorged female ticks which become detached are included in the count.

[2] = Solubility of compound A in the solvent acetyl tributyl citrate; type: physicochemical
Text: The solvent will be used in proportion with the concentration of the compound I and its solubility in this solvent.
It will be sought to have the lowest possible volume.

Boophilus microplus [3] = assay: Example 4: efficacy over time of skin solutions on cattle re-infested with larvae for 13 weeks; type: in vivo; design: Efficacy index: scale not given here
Text: Study of efficacy over time.
Skin solutions according to the invention containing 0.25, 0.5 or 1% compound A where used in this example.
The composition of these solutions is the same as for the above examples.
The cattle were preinfested so as to have all of the stages of Boophilus microplus present (infestation with 5,000 larvae, 22 days, 15 days and 8 days before application of the skin solution).
After application of the skin solutions, the cattle are again infested with the larvae for 13 weeks, to determine the efficacy of the three concentrations.

Structure (SMILES): N#Cc1nn(-c2c(Cl)cc(C(F)(F)F)cc2Cl)c(N)c1[S+]([O-])C(F)(F)F (stereo not drawn) [compound A, 1-[2,6-Cl2 4-CF3phenyl]3-CN 4-[SO-CF3]5-NH2pyrazole]
- efficacy (Boophilus microplus [1]): 100%
- solubility [2]: 4.3 % m/V
- Efficacy index (Boophilus microplus [3]; 0.25% solution, week 1 of infestation after treatment): 97.6
- Efficacy index (Boophilus microplus [3]; 0.25% solution, week 2 of infestation after treatment): 98.8
- Efficacy index (Boophilus microplus [3]; 0.25% solution, week 3 of infestation after treatment): 99.7
- Efficacy index (Boophilus microplus [3]; 0.25% solution, week 4 of infestation after treatment): 99.3
- Efficacy index (Boophilus microplus [3]; 0.25% solution, week 5 of infestation after treatment): 96.7
- Efficacy index (Boophilus microplus [3]; 0.25% solution, week 6 of infestation after treatment): 98.6
- Efficacy index (Boophilus microplus [3]; 0.25% solution, week 7 of infestation after treatment): 92.4
- Efficacy index (Boophilus microplus [3]; 0.25% solution, week 8 of infestation after treatment): 85.8
- Efficacy index (Boophilus microplus [3]; 0.25% solution, week 9 of infestation after treatment): 28.0
- Efficacy index (Boophilus microplus [3]; 0.25% solution, week 10 of infestation after treatment): 23.0
- Efficacy index (Boophilus microplus [3]; 0.25% solution, week 11 of infestation after treatment): 18.9
- Efficacy index (Boophilus microplus [3]; 0.25% solution, week 12 of infestation after treatment): 1.7
- Efficacy index (Boophilus microplus [3]; 0.25% solution, week 13 of infestation after treatment): 8.4
- Efficacy index (Boophilus microplus [3]; 0.5% solution, week 1 of infestation after treatment): 100
- Efficacy index (Boophilus microplus [3]; 0.5% solution, week 2 of infestation after treatment): 100
- Efficacy index (Boophilus microplus [3]; 0.5% solution, week 3 of infestation after treatment): 100
- Efficacy index (Boophilus microplus [3]; 0.5% solution, week 4 of infestation after treatment): 100
- Efficacy index (Boophilus microplus [3]; 0.5% solution, week 5 of infestation after treatment): 92.9
- Efficacy index (Boophilus microplus [3]; 0.5% solution, week 6 of infestation after treatment): 93.2
- Efficacy index (Boophilus microplus [3]; 0.5% solution, week 7 of infestation after treatment): 88.6
- Efficacy index (Boophilus microplus [3]; 0.5% solution, week 8 of infestation after treatment): 83.4
- Efficacy index (Boophilus microplus [3]; 0.5% solution, week 9 of infestation after treatment): 37.9
- Efficacy index (Boophilus microplus [3]; 0.5% solution, week 10 of infestation after treatment): 41.4
- Efficacy index (Boophilus microplus [3]; 0.5% solution, week 11 of infestation after treatment): 55.2
- Efficacy index (Boophilus microplus [3]; 0.5% solution, week 12 of infestation after treatment): 37.3
- Efficacy index (Boophilus microplus [3]; 0.5% solution, week 13 of infestation after treatment): 48.5
- Efficacy index (Boophilus microplus [3]; 1.0% solution, week 1 of infestation after treatment): 100
- Efficacy index (Boophilus microplus [3]; 1.0% solution, week 2 of infestation after treatment): 100
- Efficacy index (Boophilus microplus [3]; 1.0% solution, week 3 of infestation after treatment): 100
- Efficacy index (Boophilus microplus [3]; 1.0% solution, week 4 of infestation after treatment): 100
- Efficacy index (Boophilus microplus [3]; 1.0% solution, week 5 of infestation after treatment): 100
- Efficacy index (Boophilus microplus [3]; 1.0% solution, week 6 of infestation after treatment): 100
- Efficacy index (Boophilus microplus [3]; 1.0% solution, week 7 of infestation after treatment): 99.7
- Efficacy index (Boophilus microplus [3]; 1.0% solution, week 8 of infestation after treatment): 100
- Efficacy index (Boophilus microplus [3]; 1.0% solution, week 9 of infestation after treatment): 79.8
- Efficacy index (Boophilus microplus [3]; 1.0% solution, week 10 of infestation after treatment): 65.3
- Efficacy index (Boophilus microplus [3]; 1.0% solution, week 11 of infestation after treatment): 61.5
- Efficacy index (Boophilus microplus [3]; 1.0% solution, week 12 of infestation after treatment): 32.2
- Efficacy index (Boophilus microplus [3]; 1.0% solution, week 13 of infestation after treatment): 46.4
- period of efficacy against Boophilus microplus (Boophilus microplus [3]; pour-on skin solutions, cattle): two
